Results taken from PMC5902452, “In silico optimization of a guava antimicrobial peptide enables combinatorial exploration for peptide design” (Nature Communications, 2018).
Converted amounts (≈) assume the structure as drawn. Peptide text beside a SMILES is read from it.

Key:
human erythrocytes = experiment: Hemolytic assay; conditions: SPOT-synthesized crude peptides; human red blood cells in NaCl 0.85%, 1 h, 37 °C; hemoglobin release at 546 nm; highest concentration 200 μg mL−1; 100% of hemolysis was not observed
Method: Fresh human venous blood was collected from volunteers in Vacutainer collection tubes containing sodium heparin as an anticoagulant (BD Biosciences, Franklin Lakes, NJ). The blood was centrifuged applying 151 × g force (1500 rpm) and the serum was removed and the blood cells were replaced and washed three times with the same volume of sterile NaCl 0.85% solution. Concentrated red blood cells were diluted tenfold in NaCl 0.85% solution and then exposed at twofold dilutions of peptides for 1 h at 37 °C, at identical concentrations used for antimicrobial assays, in the ratio of 1:1 (v/v), achieving a final volume of 100 μL. The assay was carried out in 96-well polypropylene microtiter plates. The positive control wells contained 1% of Triton X-100, representing 100% cell lysis, and negative control wells contained sterile saline. Hemoglobin release was monitored chromogenically at 546 nm using a microplate reader.

[1] = system: P. aeruginosa H1001 (fliC::luxCDABE); assay type: cell-based, Pseudomonas aeruginosa; conditions: SPOT-synthesized unpurified crude peptide (~70% purity); bioluminescent engineered P. aeruginosa; BM2 medium; 4 h, 37 °C; reduction of luminescence; 200 to 3 μg mL−1 tested
Method: A peptide array composed of 20 peptides (15 guavanins, 4 Pg-AMP1 fragments, and magainin 2) was designed and synthesized by Kinexus Bioinformatics Corporation (Vancouver, BC). Peptides were produced in a standard mass of 80 μg by using cellulose support in SPOT technology. The crude synthetic peptides were obtained from cellulose membrane discs that had already been treated with ammonia gas to release the peptides from the membrane. Peptides were then dissolved overnight in distilled water and subsequently evaluated for their biological activities, as described below.
The antimicrobial activity of the synthesized peptides was evaluated against an engineered luminescent P. aeruginosa H1001 (fliC::luxCDABE) strain in 96-well microplates. Aqueous solutions of peptides released from the cellulose spots were diluted twofold in BM2 medium [62 mM potassium phosphate buffer pH 7; 2 mM MgSO4; 10 μM FeSO4; 0.4% (wt/vol) glucose] down the eight wells of a 96-well plate, achieving a final volume of 25 μL in each well. Subsequently, 50 μL of overnight culture of P. aeruginosa H1001 (fliC::luxCDABE) were subcultured in 5 mL of fresh LB media and grown until they reached an OD600 of 0.4. This growing bacteria culture was then diluted 4:100 (v/v) into fresh BM2 media and 25 μL of this diluted bacterial culture was transferred to the microplate wells containing 25 μL of peptide solution. The final peptide concentrations tested ranged from 200 to 3 μg mL^−1. The plates were incubated for 4 h at 37 °C with constant shaking at 50 rpm. Luminescence was measured on a Tecan […]luor Plus Microplate Reader (Tecan US, Morrisville, NC). The antimicrobial activity was evaluated by the ability of the peptides to reduce the luminescence of P. aeruginosa-lux strain compared to untreated cells. The AMP magainin 2 and the carbapenem meropenem were used as positive controls and distilled water was used as a negative control.

E. coli ATCC 25922 [2] = experiment: Membrane polarization assay with DiSC3(5); assay type: cell-based, Escherichia coli; conditions: 5 µM, positive control
Method: When the cytoplasmic membrane is intact, the fluorescent probe DiSC3(5) accumulates into the cytoplasmic membrane and then aggregates, causing self-quenching of the fluorescence. In the presence of a membrane-depolarizing agent, DiSC3(5) is released into the medium, leading to an increase in fluorescence that can be monitored over time[59]. Briefly, exponentially growing bacteria were centrifuged (1000 × g, 10 min, 4 °C), washed with PBS, and resuspended in the same buffer to an A630 of 0.1; then 700 µL of bacteria were pre-incubated with 1 µM DiSC3(5) in the dark during 10 min at 37 °C, and then 100 µL of 1 mM KCl were added in order to equilibrate the cytoplasmic and external K^+ concentrations. […] Three independent experiments were performed and results correspond to a representative experiment with negative (PBS) and positive (melittin) controls.

E. coli ATCC 25922 [3] = experiment: SYTOX green uptake assay (membrane permeabilization); assay type: cell-based, Escherichia coli; conditions: 5 µM, positive control
Method: SG is impermeant to live cells and when the cell membrane is damaged, this dye penetrates into the cell and binds to intracellular DNA, due to its high-affinity to nucleic acids, leading to an increase in fluorescence. Exponentially growing bacteria (6 × 10^5 cfu mL^−1) were resuspended in PBS after centrifugation (1000 × g, 10 min, 4 °C) and washing steps. About 792 μL of the bacterial suspension was pre-incubated with 8 μL of 100 μM SG during 30 min at 37 °C in the dark. […] Results correspond to a representative experiment with negative (PBS) and positive (melittin) controls. Three independent experiments were performed.

Molecule	Hemolysis (human erythrocytes)	MIC [1]	DiSC3(5) fluorescence change (membrane potential) (E. coli ATCC 25922 [2])	SYTOX Green influx (membrane permeabilization) (E. coli ATCC 25922 [3])
CC[C@H](C)[C@H](NC(=O)[C@H](CO)NC(=O)[C@H](CCC(=O)O)NC(=O)[C@H](Cc1ccc(O)cc1)NC(=O)[C@@H](NC(=O)[C@H](CCC(N)=O)NC(=O)[C@@H](N)CCCNC(=N)N)[C@@H](C)CC)C(=O)N[C@@H](CCC(=O)O)C(=O)N[C@@H](CCC(N)=O)C(=O)N[C@@H](C)C(=O)N[C@@H](CC(C)C)C(=O)N[C@@H](CCCNC(=N)N)C(=O)N[C@@H](CCCNC(=N)N)C(=O)NCC(=O)N[C@@H](Cc1ccc(O)cc1)C(=O)N[C@@H](CCCNC(=N)N)C(=O)N[C@@H](CO)C(=O)N[C@@H](Cc1ccc(O)cc1)C(=O)N[C@@H](CCCNC(=N)N)C(=O)N[C@@H](CCCNC(=N)N)C(N)=O [Guavanin 7] (H-RQIYESIEQALRRGYRSYRR-NH2)	> 200 µg/mL	200 µg/mL (≈ 76.9 µM)		
CC[C@H](C)[C@H](NC(=O)CNC(=O)[C@H](CCCNC(=N)N)NC(=O)[C@H](CCC(N)=O)NC(=O)CNC(=O)[C@H](CCCCN)NC(=O)[C@H](CCCNC(=N)N)NC(=O)[C@H](CC(C)C)NC(=O)[C@H](C)NC(=O)[C@H](CCCNC(=N)N)NC(=O)[C@H](CCC(=O)O)NC(=O)[C@H](Cc1ccc(O)cc1)NC(=O)[C@H](C)NC(=O)[C@H](CCC(=O)O)NC(=O)[C@H](Cc1ccc(O)cc1)NC(=O)[C@H](Cc1ccc(O)cc1)NC(=O)[C@H](CO)NC(=O)[C@@H](N)CCCNC(=N)N)C(=O)N[C@@H](CCCNC(=N)N)C(=O)N[C@@H](CCCNC(=N)N)C(N)=O [Guavanin 8] (H-RSYYEAYERALRKGQRGIRR-NH2)	> 200 µg/mL	100 µg/mL (≈ 39.6 µM)		
CSCC[C@H](NC(=O)[C@H](Cc1ccc(O)cc1)NC(=O)[C@H](C)NC(=O)[C@@H](N)CCCNC(=N)N)C(=O)N[C@@H](CCC(=O)O)C(=O)N[C@@H](C)C(=O)N[C@@H](CC(C)C)C(=O)N[C@@H](CCCNC(=N)N)C(=O)N[C@@H](CCC(N)=O)C(=O)N[C@@H](C)C(=O)N[C@@H](CCC(=O)O)C(=O)N[C@@H](CCCNC(=N)N)C(=O)N[C@@H](CC(C)C)C(=O)NCC(=O)N[C@@H](CC(N)=O)C(=O)N[C@@H](CCCNC(=N)N)C(=O)N[C@H](C(=O)N[C@@H](C)C(=O)N[C@@H](CCCNC(=N)N)C(=O)N[C@@H](CCCNC(=N)N)C(N)=O)[C@@H](C)O [Guavanin 9] (H-RAYMEALRQAERLGNRTARR-NH2)	> 200 µg/mL	> 200 µg/mL		
CSCC[C@H](NC(=O)[C@H](CC(C)C)NC(=O)[C@H](Cc1ccc(O)cc1)NC(=O)[C@@H](N)CCCNC(=N)N)C(=O)N[C@@H](CCC(=O)O)C(=O)N[C@@H](Cc1ccc(O)cc1)C(=O)N[C@@H](C)C(=O)N[C@@H](CCC(=O)O)C(=O)N[C@@H](CCC(N)=O)C(=O)N[C@@H](C)C(=O)N[C@@H](CCCCN)C(=O)N[C@@H](CCCNC(=N)N)C(=O)N[C@@H](CC(=O)O)C(=O)N[C@@H](C)C(=O)N[C@@H](CCCCN)C(=O)N[C@@H](CCCNC(=N)N)C(=O)N[C@@H](C)C(=O)N[C@@H](Cc1ccc(O)cc1)C(=O)N[C@@H](CCCNC(=N)N)C(=O)N[C@@H](CCCNC(=N)N)C(N)=O [Guavanin 10] (H-RYLMEYAEQAKRDAKRAYRR-NH2)	> 200 µg/mL	200 µg/mL (≈ 77.7 µM)		
CC[C@H](C)[C@H](NC(=O)[C@H](CC(C)C)NC(=O)[C@H](CCC(=O)O)NC(=O)[C@H](CCSC)NC(=O)[C@H](CC(C)C)NC(=O)[C@H](CCC(N)=O)NC(=O)[C@@H](N)CCCNC(=N)N)C(=O)N[C@@H](CCC(=O)O)C(=O)N[C@@H](CCC(N)=O)C(=O)N[C@@H](C)C(=O)N[C@@H](CCC(=O)O)C(=O)N[C@@H](CCCNC(=N)N)C(=O)N[C@@H](Cc1ccc(O)cc1)C(=O)NCC(=O)N[C@@H](CC(N)=O)C(=O)N[C@@H](CCCNC(=N)N)C(=O)N[C@@H](Cc1ccccc1)C(=O)N[C@@H](Cc1ccc(O)cc1)C(=O)N[C@@H](CCCNC(=N)N)C(=O)N[C@@H](CCCNC(=N)N)C(N)=O [Guavanin 11] (H-RQLMELIEQAERYGNRFYRR-NH2)	> 200 µg/mL	> 200 µg/mL		
CC[C@H](C)[C@H](NC(=O)[C@H](C)NC(=O)[C@H](CCC(N)=O)NC(=O)[C@H](CCC(=O)O)NC(=O)[C@H](Cc1ccc(O)cc1)NC(=O)[C@H](CC(C)C)NC(=O)[C@H](CCC(=O)O)NC(=O)[C@H](CCSC)NC(=O)[C@H](CC(C)C)NC(=O)[C@H](CCCCN)NC(=O)[C@@H](N)CCCNC(=N)N)C(=O)N[C@@H](CCCNC(=N)N)C(=O)N[C@@H](Cc1ccc(O)cc1)C(=O)NCC(=O)N[C@@H](CCCCN)C(=O)N[C@@H](CCCNC(=N)N)C(=O)N[C@@H](CO)C(=O)N[C@@H](Cc1ccc(O)cc1)C(=O)N[C@@H](CCCNC(=N)N)C(=O)N[C@@H](CCCNC(=N)N)C(N)=O [Guavanin 12] (H-RKLMELYEQAIRYGKRSYRR-NH2)	> 200 µg/mL	25 µg/mL (≈ 9.56 µM)		
CSCC[C@H](NC(=O)[C@H](Cc1ccc(O)cc1)NC(=O)[C@H](CCCNC(=N)N)NC(=O)[C@@H](N)CCCNC(=N)N)C(=O)N[C@@H](CCC(=O)O)C(=O)N[C@@H](CS)C(=O)N[C@@H](Cc1ccc(O)cc1)C(=O)N[C@@H](CCC(=O)O)C(=O)N[C@@H](CCC(N)=O)C(=O)N[C@@H](C)C(=O)N[C@@H](CCC(=O)O)C(=O)N[C@@H](CCCNC(=N)N)C(=O)N[C@@H](Cc1ccc(O)cc1)C(=O)N[C@@H](Cc1ccccc1)C(=O)N[C@@H](CCCNC(=N)N)C(=O)N[C@@H](CCCNC(=N)N)C(=O)N[C@@H](Cc1ccccc1)C(=O)NCC(=O)N[C@@H](CCCNC(=N)N)C(=O)N[C@@H](CCCNC(=N)N)C(N)=O [Guavanin 13] (H-RRYMECYEQAERYFRRFGRR-NH2)	> 200 µg/mL	25 µg/mL (≈ 9.02 µM)		
CC[C@H](C)[C@H](NC(=O)[C@H](CCCNC(=N)N)NC(=O)[C@H](CC(N)=O)NC(=O)CNC(=O)[C@H](Cc1ccc(O)cc1)NC(=O)[C@H](CCCNC(=N)N)NC(=O)[C@H](CO)NC(=O)[C@H](C)NC(=O)[C@H](CCC(N)=O)NC(=O)[C@H](CCC(=O)O)NC(=O)[C@H](Cc1ccc(O)cc1)NC(=O)[C@H](CS)NC(=O)[C@H](CCCCN)NC(=O)[C@H](CCSC)NC(=O)[C@H](Cc1ccccc1)NC(=O)[C@H](CO)NC(=O)[C@@H](N)CCCNC(=N)N)C(=O)N[C@@H](CC(C)C)C(=O)N[C@@H](CCCNC(=N)N)C(=O)N[C@@H](CCCNC(=N)N)C(N)=O [Guavanin 14] (H-RSFMKCYEQASRYGNRILRR-NH2)	> 200 µg/mL	12.5 µg/mL (≈ 4.93 µM)		
CC(C)C[C@H](NC(=O)[C@H](CCCCN)NC(=O)[C@@H](N)CCCNC(=N)N)C(=O)N[C@H](C(=O)N[C@@H](CCC(=O)O)C(=O)N[C@@H](CS)C(=O)N[C@@H](Cc1ccc(O)cc1)C(=O)N[C@@H](CCC(=O)O)C(=O)N[C@@H](CCCNC(=N)N)C(=O)N[C@@H](C)C(=O)N[C@@H](CCC(=O)O)C(=O)N[C@@H](CCCNC(=N)N)C(=O)N[C@@H](CC(=O)O)C(=O)N[C@@H](C)C(=O)N[C@@H](CC(N)=O)C(=O)N[C@@H](CCCNC(=N)N)C(=O)N[C@@H](CO)C(=O)NCC(=O)N[C@@H](CCCNC(=N)N)C(=O)N[C@@H](CCCNC(=N)N)C(N)=O)C(C)C [Guavanin 15] (H-RKLVECYERAERDANRSGRR-NH2)	> 200 µg/mL	200 µg/mL (≈ 81.2 µM)		
melittin [reference compound]			rapid increase in the fluorescence signal	rapid and maximal SG fluorescence signal
